Data from US11414385B2, “Compounds and methods for treating, detecting, and identifying compounds to treat apicomplexan parasitic diseases” (The University of Chicago, priority 2015, dated 2022).

What was measured:
[1] = test system: T. gondii tachyzoites (RH-YFP strain); assay: In vitro challenge assay for Toxoplasma tachyzoites (RH-YFP in HFF, fluorescence); type: cell-based, Toxoplasma gondii
Procedure: Human foreskin fibroblasts (HFF) were cultured on a flat, clear-bottomed, black 96-well plate to 90% to 100% confluence. IMDM (1×, [+] glutamine, [+] 25 mM HEPES, [+] Phenol red, 10% FBS [gibco, Denmark]) was removed from each well and replaced with IMDM-C (1×, [+] glutamine, [+] 25 mM HEPES, [−] Phenol red, 10% FBS)[Gibco, Denmark]). Type I RH parasites expressing Yellow Fluorescent Protein (RH-YFP) were lysed from host cells by double passage through a 27-gauge needle. Parasites were counted and diluted to 32,000/mL in IMDM-C. Fibroblast cultures were infected with 3200 tachyzoites of the Type I RH-YFP strain and returned to incubator at 37° C. for 1-2 hours to allow for infection. Diluted solutions of the compounds were made using IMDM-C, and 20 μl were added to each designated well, with triplicates for each condition. Controls included pyrimethamine/sulfadiazine (current standard of treatment), DMSO only, fibroblast only, and an untreated YFP gradient with 2 fold dilutions of the parasite. Cells were incubated at 37° C. for 72 hours. The plates were read using a fluorimeter (Synergy H4 Hybrid Reader, BioTek) To ascertain the amount of yellow fluorescent protein, in relative fluorescence units (RFU), as a measure of parasite burden after treatment. Compounds were not considered effective or pursued for further analysis if there were no signs of inhibition at 1 μM. Data was collected using Gen5 software and analyzed with Excel.
Protocol adapted from Fomovska, et. al. (18,19). Human foreskin fibroblasts (HFF) were cultured on a flat, clear-bottomed, black 96-well plate to 90% to 100% confluence. IMDM (1×, [+] glutamine, [+] 25 mM HEPES, [+] Phenol red, 10% FBS [gibco, Denmark]) was removed from each well and replaced with IMDM-C (1×, [+] glutamine, [+] 25 mM HEPES, [−] Phenol red, 10% FBS)[gibco, Denmark]). Type I RH parasites expressing Yellow Fluorescent Protein (RH-YFP) were lysed from host cells by double passage through a 27-gauge needle. Parasites were counted and diluted to 32,000/mL in IMDM-C. Fibroblast cultures were infected with 3200 tachyzoites of the Type I RH strain expressing Yellow Fluorescent Protein (RH-YFP) and returned to incubator at 37° C. for 1-2 hours to allow for infection (15). Various concentrations of the compounds were made using IMDM-C, and 20 μl were added to each designated well, with triplicates for each condition. Controls included pyrimethamine/sulfadiazine (current standard of treatment), 0.1% DMSO only, fibroblast only, and an untreated YFP gradient with 2 fold dilutions of the parasite. Cells were incubated at 37° C. for 72 hours. Plates were read using a fluorimeter (Synergy H4 Hybrid Reader, BioTek) to ascertain the amount of yellow fluorescent protein, in relative fluorescence units (RFU), as a measure of parasite burden after treatment. Data was collected using Gen5 software. IC50 was calculated by graphical analysis in Excel.
An initial screening assay of 10 μM, 1 μM, 100 nM, and 10 nM was performed. Compounds were not considered effective or pursued for further analysis if there were no signs of inhibition of tachyzoites at 1 μM. If compounds did appear to be effective at 1 μM, another experiment was conducted to assess effect at 1 μM, 500 nM, 250 nM, 125 nM, 62.5 nM, and 31.25 nM.
Protocol adapted from Fomovska, et. al. (Fomovska A, Huang Q, El Bissati K, Mui E J, Witola W H, Cheng G, et al. Novel N-Benzoyl-2-Hydroxybenzamide Disrupts Unique Parasite Secretory Pathway. Antimicrob Agents Chemother [Internet]. 2012 May [cited 2015 Jul. 8]; 56(5):2666-82; Fomovska A, Wood R D, Mui E, Dubey J P, Ferreira L R, Hickman M R, et al. Salicylanilide inhibitors of Toxoplasma gondii. J Med Chem. 2012 Oct. 11; 55(19):8375-91.). Human foreskin fibroblasts (HFF) were cultured on a flat, clear-bottomed, black 96-well plate to 90% to 100% confluence. […]

[2] = molecular target: T1, Plasmodium falciparum bc1 complex cytochrome c reductase (Pfbc1) (Plasmodium falciparum, UniProt Q02768); assay: Pfbc1 native assay (cytochrome c reduction by parasite extract); type: biochemical; details: compound 1 μM; mean ± s.e.m. of 4 independent experiments
T1 construct: Parasite extract was then prepared by disruption with a sonicating probe; endogenous in cells; host or cells: P. falciparum 3D7 blood-stage parasites, saponin-freed and sonicated (crude parasite extract)
T1 sequence (Q02768 1-376): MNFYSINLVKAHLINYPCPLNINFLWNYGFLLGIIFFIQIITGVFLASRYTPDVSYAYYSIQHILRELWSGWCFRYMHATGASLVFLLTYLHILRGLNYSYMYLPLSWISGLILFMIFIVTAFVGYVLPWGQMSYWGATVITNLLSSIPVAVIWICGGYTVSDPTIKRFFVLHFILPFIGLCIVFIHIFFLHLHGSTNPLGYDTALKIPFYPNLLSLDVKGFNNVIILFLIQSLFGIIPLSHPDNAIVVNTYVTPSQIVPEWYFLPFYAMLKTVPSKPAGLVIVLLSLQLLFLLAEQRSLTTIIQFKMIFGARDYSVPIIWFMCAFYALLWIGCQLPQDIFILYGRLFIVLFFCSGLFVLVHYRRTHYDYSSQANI
Procedure: Plasmodium falciparum: 3D7 strain was obtained from the Liverpool School of Tropical Medicine. Protease cocktail inhibitor was obtained from Roche. Bradford protein assay dye reagent was obtained from Bio-Rad. All other reagents were obtained from Sigma-Aldrich. Decylubiquinol was produced as per Fisher et al. (Fisher et al. 2004)^21. In brief, 25 mg of decylubiquinone were dissolved in 400 μl of nitrogen-saturated hexane. An equal volume of aqueous 1 M sodium dithionite was added, and the mixture vortexed until colorless. The organic phase containing the decylubiquinol was collected, the solvent was evaporated under N2 and the decylubiquinol finally dissolved in 100 μl of 96% ethanol (acidified with 10 mM HCl). Concentrations of decylubiquinol was determined spectrophotometrically on a Cary 300 Bio UV/visible spectrophotometer (Varian, UK) from absolute spectra, using ε288-320=8.1 mM-1·cm^−1. Decylubiquinol was stored at −80° C. and used within two weeks.
The protocol for the preparation of parasite extract was adapted from Fisher et al. (Fisher et al. 2009)^22. Free parasites were prepared from infected erythrocytes pooled from five T75 flasks, by adding 5 volumes of 0.15% (w/v) saponin in phosphate-buffered saline (137 mM NaCl, 2.7 mM KCl, 1.76 mM K2HPO4, 8.0 mM Na2HPO4, 5.5 mM D-glucose, pH 7.4) for 5 min, followed by three washes by centrifugation in RPMI containing HEPES (25 mM), and a final resuspension in potassium phosphate buffer (50 mM K2HPO4, 50 mM KH2PO4, 2 mM EDTA, pH7.4) containing a protease inhibitor cocktail (Complete Mini; Roche). Parasite extract was then prepared by disruption with a sonicating probe for 5 s, followed by a 1 min rest period on ice to prevent the sample overheating. […] The protein concentration of the parasite extract was determined by Bradford protein assay (Bio-Rad).
Plasmodium falciparum bc1 complex cytochrome c reductase (Pfbc1) activity was measured by monitoring cytochrome c reduction at 550 versus 542 nm using a Cary 300 Bio UV-Visible Spectrophotometer (Varian, UK), using a protocol adapted from Fisher et al. (Fisher et al. 2009)^21-23. […]

[3] = test system: T. gondii bradyzoites (EGS strain); assay: EGS strain bradyzoite assay (cysts in HFF, dolichos/BAG1 staining); type: cell-based, Toxoplasma gondii; details: 5 and 10 μM, in HFF
Procedure: (§1) HFF cells were grown in IMDM (1×, [+] glutamine, [+] 25 mM HEPES, [+] Phenol red, 10% FBS, [Gibco, Denmark]) on removable, sterile glass disks in the bottom of a clear, flat-bottomed 24-well plate. Cultures were infected with 3×10^4 parasites (EGS strain) per well, in 0.5 mL media and plate was returned to incubator at 37° C. overnight. The following day, the media was removed and clear IMDM and compounds were added to making various concentrations of the drug, to a total volume of 0.5 mL. Two wells were filled with media only, as a control. Plates were returned to the 37° C. incubator for 72 hours.
Efficacy was determined following fixation. Staining was used to determine the numbers of cysts in cultures without and with treatment with the test compounds. Cells were fixed using 4% paraformaldehyde and stained with Fluorescein-labeled Dolichos Biflorus Agglutinin, DAPI, and anti-BAG1, and anti-SAG1. Disks were removed and mounted onto glass slides and visualized using microscopy (Nikon Tl7). Slides were also scanned using a CRi Pannoramic Scan Whole Slide Scanner and viewed using Panoramic Viewer Software.
as §1, with “[gibco,” for “[Gibco,”, “2” for “Two”, “72 hours, and checked once every 24” for “72”, “hours. If tachyzoites were visible in the control before 72 hours, the cells were fixed and stained.” for “hours.”
Cells were fixed using 4% paraformaldehyde and stained with Fluorescein-labeled Dolichos Biflorus Agglutinin, DAPI, and BAG1. Disks were removed and mounted onto glass slides and visualized using microscopy (Nikon Tl7). Slides were scanned using a CRi Pannoramic Scan Whole Slide Scanner and viewed using Panoramic Viewer Software. Effects of the compounds were quantified by counting cysts in the controls and treated cells. Cysts and persisting organisms were counted in a representative field of view and then multiplied by a factor determined by the total area of the disk in order to estimate the number of cysts and organisms in each condition.
HFF cells were grown in IMDM (1×, [+] glutamine, [+] 25 mM HEPES, [+] Phenol red, 10% FBS, [gibco, Denmark]) on removable, sterile glass disks in the bottom of a clear, flat-bottomed 24-well plate. Cultures were infected with 3×10^4 parasites (EGS strain) per well, in 0.5 mL media and plate was returned to incubator at 37° C. overnight. The following day, the media was removed and clear IMDM and compounds were added to making various concentrations of the drug, to a total volume of 0.5 mL. 2 wells were filled with media only, as a control. Plates were returned to the 37° C. incubator for 72 hours, and checked once every 24 hours. If tachyzoites were visible in the control before 72 hours, the cells were fixed and stained. Cells were fixed using 4% paraformaldehyde and stained with Fluorescein-labeled Dolichos Biflorus Agglutinin, DAPI, and BAG1. Disks were removed and mounted onto glass slides and visualized using microscopy (Nikon Tl7). Slides were scanned using a CRi Pannoramic Scan Whole Slide Scanner and viewed using Panoramic Viewer Software. Effects of the compounds were quantified by counting cysts in the controls and treated cells. Cysts and persisting organisms were counted in a representative field of view and then multiplied by a factor determined by the total area of the disk in order to estimate the number of cysts and organisms in each condition. Data was collected using Gen5 software. IC50 was calculated by graphical analysis in Excel.

Compound | IC50 ([1]; Toxoplasma gondii, RH-YFP, read-out: Tachy IC50) [nM] | Inhibition of cytochrome c reduction (% atovaquone response) [2] [% atovaquone response] | effect on tachyzoite replication ([1]; 5 and 10 μM, vs off target control) | effect on size and number of EGS cysts [3]
O=c1c2c([nH]c(CO)c1-c1ccc(Oc3ccc(OC(F)(F)F)cc3)cc1)CCCC2 [JAG099, 3(4-(4-Trifluoromethoxyphenoxy)phenyl)-2-(methylhydroxy)-5,6,7,8-tetrahydroquinolin-4(1H)-one] | 320 | 81.3 ± 6.0 | – | –
Vivoporter-PMOs: "Vivo-PMO (Vivo porter linked to morpholinos) to knock down cytochrome b"; sequence 5′ AGTGTTCTCGAAACCATGCTAACAC 3′ (SEQ ID NO: 5) (all phosphorodiamidate morpholino (PMO); Vivo-Porter delivery moiety attached to morpholino, further chemistry not fully specified; listed as Homo sapiens) [reference compound] | – | – | modest effect | small effect
